{
  "source": "patent US11340239B2",
  "about": "“BNP (1-32) epitope and antibodies directed against said epitope” (Bio-Rad Europe GMBH, priority 2007, dated 2022)",
  "key": {"20G7 antibody [1]": {"tested_on": "20G7 antibody", "test": "Calibrator standard range in BioPlex 2200 proBNP assay", "assay_type": "binding", "settings": "FIGS. 14 and 15", "description": "(§1) The CaliproBNP1 calibrator was diluted to 1 μg/mL, 0.2 μg/mL, 0.1 μg/mL, and 0.02 μg/mL, the CaliproBNP3 calibrator was diluted to 1.6 μg/mL, 0.8 μg/mL, 0.3 μg/mL, 0.06 μg/mL, the CaliproBNP5 and CaliproBNP6 calibrators were diluted to from 100 ng/ml to 0.01 ng/ml in the same 0.1 M succinate buffer, pH 7.6."}, "[2]": {"test": "Accelerated liquid stability, BioPlex 2200 proBNP assay", "description": "(§2) The different compounds were tested at different concentrations diluted in 0.1 M succinate buffer, pH 7.6, containing 5% BSA, 2 mM CaCl2, 10% antiproteases cocktail (Sigma reference P2714), 0.1% Proclin, 0.095% NaN3 and 0.1% sodium benzoate.\n(§3) The compounds stability was studied in accelerated condition (room temperature) compared to synthetic BNP(1-32) (Sigma-Aldrich, Etats-Unis, #B-5900) and recombinant proBNP(1-108) (HyTest Ref. 8PRO8) in the following way:\n(§4) Recombinant proBNP(1-108), synthetic BNP(1-32) and calibrator peptides were diluted in 0.1 M succinate buffer, pH 7.6 described above. Each solution was divided in 10 tubes placed at room temperature (20° C.±5° C.). Then one tube of each solution was frozen at J0, J+7, J+14, J+21. At J+21, the different solutions were thawed and assayed by means of the BioPlex™ 2200 proBNP assay described in Example 14 or of the immunoassays described in Examples 8.2 and 10.2.\n(§5) In the BioPlex™ 2200 proBNP assay, the stability of two concentrations of proBNP(1-108), 10 ng/mL and 1 ng/mL, of CaliproBNP1, 2 μg/mL and 0.125 μg/mL and CaliproBNP3, 1 μg/mL and 0.3 μg/mL, were analyzed. In ELISA format, three concentrations of proBNP(1-108) and BNP(1-32), 1.56 ng/mL, 0.78 ng/ml and 0.39 ng/mL, and of CaliproBNP5, […], 31 ng/mL and 15.6 ng/mL, were analysed."}, "[3]": {"test": "Accelerated liquid stability, ELISA format", "description": "as §2, §3, §4, §5"}, "20G7 antibody [4]": {"tested_on": "20G7 antibody", "test": "Calibrator standard range in ELISA with 20G7 in revelation", "assay_type": "binding", "settings": "FIGS. 16 and 17", "description": "as §1"}, "BNP(1-32)": {"molecular_target": "T1, BNP(1-32) (Homo sapiens, UniProt P16860)", "T1 construct": "BNP(1-32): synthetic peptide (Sigma-Aldrich, USA, #B-5900); purchased Sigma-Aldrich B-5900; host or cells: chemical synthesis", "T1 sequence (P16860 103-134 limits assumed)": "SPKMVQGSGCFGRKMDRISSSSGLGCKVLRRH", "test": "Immunisation of mice, ELISA of sera", "assay_type": "in vivo", "settings": "Balb/c mice immunised with KLH-coupled peptide", "description": "In order to produce monoclonal antibodies, ten mice (Balb/c strain females, 5 weeks old, ref: SIFE055, Charles Rivers, Mass., USA) were immunised using one of the following peptides:\nFor the first injection, an emulsion of 100 μg of KLH-coupled peptide (at a concentration of 1 mg/ml) diluted to ½ in Freund's complete adjuvant (Sigma, #F-5881) was prepared, and 200 μL of said emulsion (i.e. 100 μg of peptide) were injected subcutaneously into each mouse. At intervals of 20 days, three 200 μL booster shots of an emulsion of KLH-coupled peptide (i.e. 100 μg of peptide) and Freund's incomplete adjuvant (Sigma, #F-5506) were injected subcutaneously, then peritoneally, into each mouse.\nAn ELISA test was carried out on a solid support to detect the presence of anti-BNP(1-32) antibodies in a mouse serum sample. […]\nThe microplate was washed three times with 0.1% PBS-T. Each serum from previously immunised mice was subsequently diluted tenfold with 0.1% PBS-T containing 0.1% milk (semi-skimmed), then deposited on the basis of 100 μL per well and left to incubate for two hours at 37° C. […] The enzymatic reaction was stopped by adding 50 μL of sulphuric acid (H2SO4, 4 N) per well, and the OD at 490 nm was subsequently measured in each well."}, "[5]": {"settings": "room temperature, up to J0 + 21"}},
  "note": "“Also recorded” adds a separate entry of the source. Positions of bridges follow the written chain, without caps; N, C: chain ends. Non-standard residues stand in square brackets, D forms with d. Residues, ends and D or L forms follow the SMILES beside them. *: point of attachment. Ahx = NCCCCCC(=O)O; Acm = CC(=O)NC*",
  "data": [
    {"compound": "CC[C@H](C)[C@H](NC(=O)[C@H](CCCNC(=N)N)NC(=O)[C@H](CC(=O)O)NC(=O)[C@H](CCSC)NC(=O)[C@H](CCCCN)NC(=O)[C@H](CCCNC(=N)N)NC(=O)CNC(=O)[C@H](Cc1ccccc1)NC(=O)[C@H](CO)NC(=O)CCCCCNC(=O)[C@@H](NC(=O)[C@H](CCSC)NC(=O)[C@H](CCCCN)NC(=O)[C@@H]1CCCN1C(=O)[C@H](CO)NC(=O)[C@H](CCCNC(=N)N)NC(=O)[C@@H]1CCCN1C(=O)[C@H](C)NC(=O)[C@H](CCCNC(=N)N)NC(=O)[C@H](CC(C)C)NC(=O)[C@@H](NC(=O)[C@H](Cc1ccc(O)cc1)NC(C)=O)[C@@H](C)O)C(C)C)C(=O)N[C@@H](CO)C(=O)N[C@@H](CO)C(N)=O", "note": "[CaliproBNP1, Ac-YTLRAPRSPKMV-Ahx-SFGRKMDRISS-CONH2] (Ac-YTLRAPRSPKMV[Ahx]SFGRKMDRISS-NH2)", "values": [
      {"measurement": "signal in the BioPlex 2200 proBNP assay", "setting": "20G7 antibody [1]", "value": "increasing signal with the compound concentration"}
    ]},
    {"compound": "CSCC[C@H](NC(=O)[C@H](CCCCN)NC(=O)[C@H](CCCNC(=N)N)NC(=O)CNC(=O)[C@H](Cc1ccccc1)NC(=O)CCCCCNC(=O)CNC(=O)[C@H](CCC(N)=O)NC(=O)[C@@H](NC(=O)[C@H](CCSC)NC(=O)[C@H](CCCCN)NC(=O)[C@@H]1CCCN1C(=O)[C@H](CO)NC(=O)[C@H](CCCNC(=N)N)NC(=O)[C@@H]1CCCN1C(=O)[C@H](C)NC(=O)[C@H](CCCNC(=N)N)NC(=O)[C@H](CC(C)C)NC(=O)[C@@H](NC(=O)[C@H](Cc1ccc(O)cc1)NC(C)=O)[C@@H](C)O)C(C)C)C(=O)N[C@@H](CC(=O)O)C(=O)N[C@@H](CCCNC(=N)N)C(N)=O", "note": "[CaliproBNP3, Ac-YTLRAPRSPKMVQG-Ahx-FGRKMDR-CONH2] (Ac-YTLRAPRSPKMVQG[Ahx]FGRKMDR-NH2)", "values": [
      {"measurement": "Liquid stability at room temperature in buffer, ratio “signal at J0 + X/signal at J0”", "setting": "[2]; J0 + 7, 0.3 μg/mL", "value": 0.91},
      {"measurement": "Liquid stability at room temperature in buffer, ratio “signal at J0 + X/signal at J0”", "setting": "[2]; J0 + 7, 1 μg/mL", "value": 0.92},
      {"measurement": "Liquid stability at room temperature in buffer, ratio “signal at J0 + X/signal at J0”", "setting": "[2]; J0 + 14, 0.3 μg/mL", "value": 0.98},
      {"measurement": "Liquid stability at room temperature in buffer, ratio “signal at J0 + X/signal at J0”", "setting": "[2]; J0 + 14, 1 μg/mL", "value": 1.02},
      {"measurement": "Liquid stability at room temperature in buffer, ratio “signal at J0 + X/signal at J0”", "setting": "[2]; J0 + 21, 0.3 μg/mL", "value": 1.15},
      {"measurement": "Liquid stability at room temperature in buffer, ratio “signal at J0 + X/signal at J0”", "setting": "[2]; J0 + 21, 1 μg/mL", "value": 1.06},
      {"measurement": "stability compared with recombinant proBNP(1-108)", "setting": "[2]; [5]", "value": "higher stability"},
      {"measurement": "signal in the BioPlex 2200 proBNP assay", "setting": "20G7 antibody [1]", "value": "increasing signal with the compound concentration"}
    ]},
    {"compound": "CSCC[C@H](NC(=O)[C@H](CCCCN)NC(=O)[C@H](CCCNC(=N)N)NC(=O)CNC(=O)[C@H](Cc1ccccc1)NC(=O)CCCCCNC(=O)CNC(=O)[C@H](CO)NC(=O)CNC(=O)[C@H](CCC(N)=O)NC(=O)[C@@H](NC(=O)[C@H](CCSC)NC(=O)[C@H](CCCCN)NC(=O)[C@@H]1CCCN1C(=O)[C@H](CO)NC(C)=O)C(C)C)C(=O)N[C@@H](CC(=O)O)C(=O)N[C@@H](CCCNC(=N)N)C(N)=O", "note": "[CaliproBNP5, Ac-SPKMVQGSG-Ahx-FGRKMDR-CONH2] (Ac-SPKMVQGSG[Ahx]FGRKMDR-NH2)", "values": [
      {"measurement": "Liquid stability at room temperature in buffer, ratio “signal at J0 + X/signal at J0”", "setting": "[3]; J0 + 7, 0.0156 ng/mL", "value": 1.1},
      {"measurement": "Liquid stability at room temperature in buffer, ratio “signal at J0 + X/signal at J0”", "setting": "[3]; J0 + 7, 0.031 ng/mL", "value": 1.06},
      {"measurement": "Liquid stability at room temperature in buffer, ratio “signal at J0 + X/signal at J0”", "setting": "[3]; J0 + 7, 0.0625 ng/mL", "value": 1.02},
      {"measurement": "Liquid stability at room temperature in buffer, ratio “signal at J0 + X/signal at J0”", "setting": "[3]; J0 + 14, 0.0156 ng/mL", "value": 1.01},
      {"measurement": "Liquid stability at room temperature in buffer, ratio “signal at J0 + X/signal at J0”", "setting": "[3]; J0 + 14, 0.031 ng/mL", "value": 1.01},
      {"measurement": "Liquid stability at room temperature in buffer, ratio “signal at J0 + X/signal at J0”", "setting": "[3]; J0 + 14, 0.0625 ng/mL", "value": 1.02},
      {"measurement": "Liquid stability at room temperature in buffer, ratio “signal at J0 + X/signal at J0”", "setting": "[3]; J0 + 21, 0.0156 ng/mL", "value": 1.10},
      {"measurement": "Liquid stability at room temperature in buffer, ratio “signal at J0 + X/signal at J0”", "setting": "[3]; J0 + 21, 0.031 ng/mL", "value": 1.06},
      {"measurement": "Liquid stability at room temperature in buffer, ratio “signal at J0 + X/signal at J0”", "setting": "[3]; J0 + 21, 0.0625 ng/mL", "value": 1.1},
      {"measurement": "stability compared with recombinant proBNP(1-108) and BNP(1-32)", "setting": "[3]; [5]", "value": "higher stability"},
      {"measurement": "signal in the BNP(1-32) and the proBNP(1-108) assay", "setting": "20G7 antibody [4]", "value": "signal increasing with the compound concentration"}
    ]},
    {"compound": "Ac-TGCFGRKMDRISTSTAIGCKVLCys-CONH2 (Ac-TGCFGRKMDRISTSTAIGCKVLC-NH2; disulfide 3-19; also: KLH-coupled) [SEQ ID NO: 4, immunogen peptide, coupled to KLH]", "values": [
      {"measurement": "immune response / antiserum reactivity towards BNP(1-32)", "setting": "BNP(1-32)", "value": "very reactive; also recorded: much greater"}
    ]},
    {"compound": "Ac-YTLRAPRSPKMV-Ahx-FGRKMDR-Ahx-SGLGC*KVLRRH-COOH (Ac-YTLRAPRSPKMV[Ahx]FGRKMDR[Ahx]SGLGC(Acm)KVLRRH-OH; SMILES CSCC[C@H](NC(=O)[C@H](CCCCN)NC(=O)[C@H](CCCNC(=N)N)NC(=O)CNC(=O)[C@H](Cc1ccccc1)NC(=O)CCCCCNC(=O)[C@@H](NC(=O)[C@H](CCSC)NC(=O)[C@H](CCCCN)NC(=O)[C@@H]1CCCN1C(=O)[C@H](CO)NC(=O)[C@H](CCCNC(=N)N)NC(=O)[C@@H]1CCCN1C(=O)[C@H](C)NC(=O)[C@H](CCCNC(=N)N)NC(=O)[C@H](CC(C)C)NC(=O)[C@@H](NC(=O)[C@H](Cc1ccc(O)cc1)NC(C)=O)[C@@H](C)O)C(C)C)C(=O)N[C@@H](CC(=O)O)C(=O)N[C@@H](CCCNC(=N)N)C(=O)NCCCCCC(=O)N[C@@H](CO)C(=O)NCC(=O)N[C@@H](CC(C)C)C(=O)NCC(=O)N[C@@H](CSCNC(C)=O)C(=O)N[C@@H](CCCCN)C(=O)N[C@H](C(=O)N[C@@H](CC(C)C)C(=O)N[C@@H](CCCNC(=N)N)C(=O)N[C@@H](CCCNC(=N)N)C(=O)N[C@@H](Cc1c[nH]cn1)C(=O)O)C(C)C) [CaliproBNP6, triepitopic calibrator]", "values": [
      {"measurement": "signal in the BNP(1-32) and the proBNP(1-108) assay", "setting": "20G7 antibody [4]", "value": "signal increasing with the compound concentration"}
    ]}
  ]
}
